The values that follow come from patent US20190166840A1, “SUBSTITUTED PYRAZOLINYL DERIVATIVES, PROCESSES FOR THEIR PREPARATION AND THEIR USE AS HERBICIDES AND/OR PLANT GROWTH REGULATORS” (BAYER CROPSCIENCE AKTIENGESELLSCHAFT, priority 2016, published 2019).

The first experiment addresses T1, photosystem II (PS II) (Spinacia oleracea, UniProt P69560).
T1 construct: the chloroplasts were osmotically ruptured and the thylakoid membranes were then obtained by centrifugation; from tissue; host or cells: spinach leaves (thylakoid membrane preparation)
Briefly: Activity determination of photosystem II (PS II) in thylakoid membranes, DCPIP reduction. It is filed as biochemical. Particulars: spinach thylakoid membranes, DCPIP 120 μM, 10 min at 22° C. with illumination; read-out: pI50 (converted). The protocol:
Measurement of PS II Activity in Thylakoid Membranes
1. Preparation of the Thylakoid Membranes
Cooled fresh spinach leaves were comminuted and homogenized in 50 mM phosphate buffer, pH 6.8, 10 mM KCl, 0.34 M sucrose (sucrose buffer) (mixer, 1 g of plant material/ml). The homogenate was subsequently filtered through 4 layers of Miracloth and the chloroplasts were obtained by centrifugation: • 10 minutes (min) of centrifugation at 4400×g (4° C.). • The sediment was suspended in 25 ml of sucrose buffer and centrifuged for another 10 min at 4400×g (4° C.). • The sediment was then suspended in 40 ml of 50 mM phosphate buffer, pH 6.8, 10 mM KCl, without sucrose. • In this step, the chloroplasts were osmotically ruptured and the thylakoid membranes were then obtained by centrifugation (10 min, 4400×g, 4° C.). The membrane sediment was finally suspended in about 20 ml of 50 mM phosphate buffer, pH 6.8, 10 mM KCl. • After protein determination and activity determination, the membrane suspension was aliquoted and frozen in liquid nitrogen. The aliquots were stored at −80° C. Under these conditions, the photosystem II preparation is storage-stable for at least three months.
2. Activity Determination of the Photosystem II (PS II)
The electron transfer from PS II to an artificial electronic captor, 2,6-dichlorophenol-indophenol (DCPIP), is measured under the action of light. The concentration of the blue oxidized form of DCPIP can be determined spectraphotometrically at the wavelength l=595 nm. The enzyme-catalyzed reduction of DCPIP results in a colourless leuco form and thus to a decrease of absorption at 595 nm in the reaction batch, which is measured as a function of time.
The activity determination was carried out in microtiter plates (96 wells) in a reaction volume of 200 μl. 155 μl of dilute membrane suspension in 50 mM phosphate buffer, pH 6.8, 10 mM KCl were initially charged. Depending on the activity of the PS II preparation, the dilution was adjusted such that measurement of the decrease in absorption (λ=595 nm) was linear for at least 10 min.
Typical dilution series of the test compounds comprised 10 concentration steps in the range between 10^−9and 10^−5 M.
On each microtiter plate, a known PS II inhibitor, e.g. metribuzin, was used as standard for assessing the quality of the PS II test.
The reaction was initiated by addition of 40 μl DCPIP solution (600 μM in distilled water); the final concentration of DCPIP was 120 μM.
Absorption was measured over a period of 10 min at 22° C. and with illumination. For calculating the active compound concentration at which 50% of the enzyme activity is inhibited (IC50), the relative enzymatic activity (in %) was plotted as a function of the logarithm of the active compound concentration.
Regarding `CC1=C(C)C(O)N(C2=NN(c3ccccc3)C(C(F)(F)F)C2)C1=O` (stereo not drawn) [I.2-1413], the IC50 was 5.01 µM.

In the next experiment the test system is Veronica persica. The experiment can be described thus: Pre-emergence herbicidal action, VERPE. It is filed as in vivo. The following applies: application rate 1280 g/ha, scored visually after about 3 weeks. The text has this: Pre-Emergence Herbicidal Action Seeds of mono- and dicotyledonous weed plants or crop plants were placed in sandy loam in wood fibre pots and covered with soil. The formulated compounds of the general formula (I) according to the invention were then applied to the surface of the covering soil in the form of an aqueous suspension or emulsion at an application rate of 600 l of water/ha (converted) with addition of 0.2% wetting agent. After the treatment, the pots were placed in a greenhouse and kept under good growth conditions for the test plants. After about 3 weeks, the effect was scored visually in percent in comparison to untreated controls. For example, 100% activity=the plants have died, 50% herbicidal activity or damage=plants reduced to 50% or plant material reduced by 50%, 0% activity=like control plants. Here, in the biological tests, the compounds of the general formula (I) according to the invention were in each case employed in a formulation, with the numerations of Tables I.1 to I.77 also applying here. Here, the herbicidal action of the compounds of the general formula (I) according to the invention was examined for the following harmful plants: VERPE=Veronica persica The respective herbicidal action was in each case determined at the same point in time after application of the formulation in question, i.e. damage of the harmful plant in question in %. Pre-emergence herbicidal action of the compounds of the general formula (I) according to the invention: […]
For the molecule `CC1=C(C)C(O)N(C2=NN(c3ccccn3)C(C)(C)C2)C1=O` (stereo not drawn) [I.2-132], the “Pre-emergence herbicidal action VERPE, damage of the harmful plant” value was 30%. Still for that read-out and setting: the figure for `CCC(=O)OC1C(C)=C(C)C(=O)N1C1=NN(c2ccccn2)C(C)(C)C1` (stereo not drawn) [I.23-132] is 60%; for `CCC(=O)OC1C(C)=C(C)C(=O)N1C1=NN(c2ccccc2)CC1` (stereo not drawn) [I.23-621] it is 0%. Same read-out and setting: for `CCC(=O)OC1C(C)=C(C)C(=O)N1C1=NN(c2ccccc2)C(C(F)(F)F)C1` (stereo not drawn) [I.23-1413] the value was 60%. On the same count and under the same terms, for `CCC(=O)OC1C(C)=C(Cl)C(=O)N1C1=NN(C)C(c2ccccc2)C1` (stereo not drawn) [I.24-1126] the value was 0%.
